For orientation: CC50 means the concentration that lowers cell viability or growth by half. One may read the EC50 as the concentration that produces a half-maximal response.

Several values for one entry are separate records, joined by “and”; a condition that tells them apart may be missing. Equal entries are not always repeated. Where two headings read alike, the source gives them in different places.

Data set [1] in a line: HCV genotype 1a replicon assay, CC50 by calcein AM (Biological Example 3). Type of data set: cell-based. The note with it: human, Huh-7 cells carrying a HCV genotype 1a replicon, genotype 1a replicon cells. The procedure:
The CC50 assay was performed first.

Data set [2] can be described thus: HCV genotype 1a replicon assay, CC50 by calcein AM (Biological Example 8). The following applies: human, Huh-7 cells carrying an HCV genotype 1a replicon.
The subject of data set [3] is HCV genotype 1a replicon. As to the kind of experiment: Antiviral combination studies with Compound 4, MacSynergy II. The note with it: in combination with Compound 4, mean ± standard deviation.
Data set [4] deals with genotype 1b replicon RNA. As to the kind of experiment: Replicon RNA suppression, 6 day assay, QRT-PCR. Background: In antiviral work, replicon cells carry a viral genome segment that copies itself.
For data set [5], the system named is HCV genotype 1a replicon. The data set is described as follows: HCV genotype 1a replicon assay, EC50 (Biological Example 3). Format: cell-based. The note with it: Hepatitis C virus, 72 h, 3 days, average ± standard deviation, read-out: EC50.
Data set [6] relates to HCV genotype 1a replicon. The data set is described as follows: HCV genotype 1a replicon assay, EC50 (Biological Example 8). The following applies: Hepatitis C virus, 72 h.
Data set [7] concerns 1b Huh-luc replicon cells. As to the kind of experiment: Antiviral combination studies with Compound 5, MacSynergy II. Format: cell-based, HCV. The protocol:
Combination data were analyzed based on the Bliss Independence model using MacSynergy II software. Results of the combination assays were expressed as mean synergy and antagonism volumes (nM^2) calculated at 95% confidence from two independent experiments performed in triplicate.

Data set [8] has as its system HCV genotype 1a replicon. As to the kind of experiment: Antiviral combination studies with Compound 10, MacSynergy II. The note with it: in combination with Compound 10.
For data set [9], the system named is Huh-7 cells carrying an HCV genotype 1a replicon. The note with it: with 320 nM Compound 10 and the highest concentration of the listed compound.
The test system of data set [10] is Genotype 1 b replicon cells. As to the kind of experiment: Compound combination replicon cure assay, colony formation. The following applies: 6 days treatment at the same concentrations, then G418 for 14 days.
Data set [11] concerns HCV 1b replicon system (Huh-luc). As to the kind of experiment: Antiviral combination studies with Compound 6, MacSynergy II.
The subject of data set [12] is Huh-7 cells carrying a HCV genotype 1a replicon. The data set is described as follows: Cytotoxicity combination studies with Compound 4, MacSynergy II.
Data set [13] has as its system GT4a NS5B S282T mutant chimeric replicon. The data set is described as follows: microbe, parasite or virus in culture. Type of data set: cell-based, HCV.
Data set [14] deals with GT2a NS5B S282T mutant replicon. The data set is described as follows: microbe, parasite or virus in culture. Type of data set: cell-based, HCV.
Data set [15] has as its system GT2b wild-type chimeric replicon (2b NS5B in GT1b backbone). The data set is described as follows: microbe, parasite or virus in culture. Type of data set: cell-based, HCV. The note with it: Hepatitis C virus, 72 h, read-out: EC50 WT.
For data set [16], the system named is Genotype 1a replicon, NS5A L31M.
The subject of data set [17] is GT3a NS5B S282T mutant chimeric replicon. As to the kind of experiment: microbe, parasite or virus in culture. Type of data set: cell-based, HCV.
Data set [18] concerns GT3a wild-type chimeric replicon (3a NS5B in GT1b backbone). The data set is described as follows: microbe, parasite or virus in culture. Format: cell-based, HCV. The following applies: Hepatitis C virus, 72 h, read-out: EC50 WT.
Data set [19] deals with panel of NS5A mutant replicons. As to the kind of experiment: Transient replicon assay, panel of NS5A mutant replicons. Format: cell-based, HCV. The note with it: seven NS5A mutants, genotype 1a. From the text:
NS5A mutant replicons were created by synthesizing a sequence encoding the first 149 amino acids of NS5A containing the desired mutation flanked by a 5′ and 3′ BsrGI and EcoRI site, respectively (Genscript, Piscataway, N.J.). Synthesized fragments were then cloned by standard molecular biology techniques into a 1a Rluc replicon plasmid modified to enable cloning into unique BsrGI and EcoRI restriction sites. Mutations were confirmed by DNA sequencing.
RNA was transfected into Huh-lunet cells using the method of Lohmann et al. (Lohmann et al., Science 1999; 285 (5424):110-3) Briefly, cells were trypsinized and washed twice with PBS. A suspension of 4×10^6 cells in 400 μL of PBS were mixed with 5 μg of RNA and subjected to electroporation using settings of 960 μF and 270 V. Cells were transferred into 40 mL of pre-warmed culture medium and then seeded into 96-well or 384-well plates. Compounds were 3-fold serially diluted in 100% DMSO and added to cells to achieve a final DMSO concentration of 0.5%. Cells were treated for three days after which culture media were removed, cells were lysed, and Renilla luciferase activity was quantified using commercially available reagents (Promega) and a Victor or Envision instrument (Perkin Elmer, Waltham, Mass.).
Resistance fold changes were calculated as the ratio of mutant to wild-type replicon EC50. […]

The subject of data set [20] is Genotype 1a replicon, NS5A M28T.
For data set [21], the system named is GT4a wild-type chimeric replicon (4a NS5B in GT1b backbone). The data set is described as follows: microbe, parasite or virus in culture. Type of data set: cell-based, HCV. The note with it: Hepatitis C virus, 72 h, read-out: EC50 WT.
Data set [22] relates to GT1b wild-type replicon. As to the kind of experiment: microbe, parasite or virus in culture. Type of data set: cell-based, HCV. The following applies: Hepatitis C virus, 72 h, 3 days.
Data set [23] has as its system GT2b NS5B S282T mutant chimeric replicon. As to the kind of experiment: microbe, parasite or virus in culture. Format: cell-based, HCV.
In data set [24] the test system is NS5B S282T mutant replicons. As to the kind of experiment: microbe, parasite or virus in culture. Format: cell-based, HCV. The following applies: Hepatitis C virus, read-out: EC50 values for S282T across all five genotypes.
The subject of data set [25] is Genotype 1a replicon, NS5A Q30H.
The test system of data set [26] is Genotype 1a replicon, NS5A Q30R.
For data set [27], the system named is GT2a wild-type replicon. As to the kind of experiment: microbe, parasite or virus in culture. Format: cell-based, HCV. The note with it: Hepatitis C virus, 72 h, 3 days.
In data set [28] the test system is GT1b NS5B S282T mutant replicon. The data set is described as follows: microbe, parasite or virus in culture. Format: cell-based, HCV.
Data set [29] concerns Genotype 1a replicon, NS5A Q30E.
For data set [30], the system named is Genotype 1a replicon, NS5A Y93H.
Where [31] appears, read: in combination with Compound 5, mean ± standard deviation.
[32] abbreviates: in combination with Compound 6, mean ± standard deviation.
[33] abbreviates: in combination with Compound 4, mean ± standard deviation.

In the case of `CC[C@@H]1C[C@]1(NC(=O)[C@@H]1C[C@@H](Oc2cc(-c3csc(NC(C)C)n3)nc3c(Cl)c(OCCN4CCOCC4)ccc23)CN1C(=O)[C@@H](NC(=O)O[C@@H]1C[C@@H]2C[C@@H]2C1)C(C)(C)C)C(=O)O` [Compound 3], the half-maximal cytotoxic concentration (CC50) at 3 days in data set [1] and in data set [2] was over 22200 nM throughout. Besides, the “Antagonism Volume” value was −3 ± 2 nM^2% in [3], −2 ± 2 nM^2 in data set [7] (setting [31]) and −0.1 ± 0.2 nM^2 in data set [11] (setting [32]). In addition, the “Synergy Volume” value is 26 ± 6 nM^2% in data set [3]; 19 ± 13 nM^2 in data set [7] (setting [31]); 132 nM^2 and 132 ± 44 nM^2 in [11] (setting [32]). Moreover, the “Replicon RNA log drop” value in data set [4] is −0.9 log; in data set [4] (single compound at the listed concentration, 6 days, relative to DMSO control (Table XIV)), −0.9 log. Moreover, the “Compound concentration able to induce replicon RNA 1-1.5 log drop in a 6 day assay” value in data set [4] (genotype 1b replicon cells, 6 days) is 26.25 nM. For the same compound, the EC50 worked out at 49 ± 18 nM in data set [5] and 46 nM in [6]. Also, the values for the Interaction result in data set [7] (in combination with Compound 5), in [8] and in data set [11] (in combination with Compound 6) were “Additive”, “Additive” and “Strong Synergy”, respectively. In addition, the “Cytotoxicity at Highest Concentration of Compound Combinations (% inhibition on cell growth)” value in data set [9] is 2.0 ± 3.5%. Also, the Uncured colony number in data set [10] was 989. The “Interaction (cytotoxicity)” value in data set [12] (in combination with Compound 4) was “Additivity (Additivity: ≤25 and >−25 nM^2%)”. In data set [12] (setting [33]), the “Antagonism Volume (cytotoxicity)” value is on record as 0 ± 0 nM^2%. Also, the “Synergy Volume (cytotoxicity)” value in [12] (setting [33]) was 3 ± 5 nM^2%.
On to `CC(C)OC(=O)[C@H](C)N[P@](=O)(OC[C@H]1O[C@@H](n2ccc(=O)[nH]c2=O)[C@](C)(F)[C@@H]1O)Oc1ccccc1` [Compound 10], for which, in data set [2], the CC50 at 3 days was over 82400 nM. The Fold change in [13] (GT4a, S282T EC50 versus corresponding wild type) worked out at 6.1; in data set [14] (GT2a, S282T EC50 versus corresponding wild type), 2.4; in [17] (GT3a, S282T EC50 versus corresponding wild type), 3.5; in [23] (GT2b, S282T EC50 versus corresponding wild type), 16.2; in data set [28] (GT1b, S282T EC50 versus corresponding wild type) it was 8.8. Moreover, the EC50 in [13] (Hepatitis C virus, GT4A, 72 h, read-out: EC50 S282T) was 218 nM; in [14] (Hepatitis C virus, GT2A, 72 h, read-out: EC50 S282T), 346 nM; in data set [15], 13.3 nM; in data set [6] it was 39 nM; in [17] (Hepatitis C virus, GT3A, 72 h, read-out: EC50 S282T), 117 nM; in [18] it was 33.9 nM. Besides, the EC50 in [21] is 35.8 nM; in data set [22] it was 21.5 nM; in data set [23] (Hepatitis C virus, GT2B, 72 h, read-out: EC50 S282T) it was 216 nM; in [24], 117 to 346 nM; in data set [27] it was 147 nM; in data set [28] (Hepatitis C virus, GT1B, 72 h, read-out: EC50 S282T), 189 nM. Also, the “Fold Shift in EC50 (DRM EC50/1a-H77 EC50)” value in data set [16] came out at 1.1; in data set [20], 0.9; in data set [25] it was 1.0; in data set [26], 0.8; in [29], 1.0; in data set [30], 0.7. Also, the “increase (shift) in EC50 for NS5A mutants” value in data set [19] is reported as “no significant shift”.
